“Also recorded” adds a separate entry of the source. Like-named read-outs stand apart in the source and are kept apart here.
What was measured:
[1] = set-up: method as in Khaliq et al., manuscript in preparation; conditions: ref Khaliq et al., manuscript in preparation; cited from earlier work
rat KOR [2] = biological target: T1, rat KOR (Rattus norvegicus, UniProt P34975); conditions: ratio Ki(MOR)/Ki(KOR)
C57BL/6J mice [3] = conditions: mice, ref [19], [20], cited from earlier work
C57BL/6J mice [4] = experiment: Acute antinociceptive tolerance (tail-withdrawal assay, dosing at 0 and 8 h); conditions: i.c.v.; for Fold-Shift, Naïve ED50 vs. Second ED50: 0 h vs 8 h; for ED50 (95% C.I.) Pretreated Mice: 8 h after pretreatment with ED50 dose of the same compound, * significantly different from naïve; for Naïve ED50 (95% C.I.): naïve C57BL/6J mice, tail-withdrawal assay; for acute antinociceptive tolerance: ED50 at 8 h vs 0 h
mouse DOR = conditions: radioligand binding; ref [19]; cited from earlier work
C57BL/6J mice [5] = conditions: ref [19], [20]; cited from earlier work
rat KOR [6] = biological target: T1, rat KOR; experiment: biochemical
rat MOR = biological target: T2, rat MOR (Rattus norvegicus, UniProt P33535); experiment: Radioligand equilibrium competition binding, MOR; conditions: [3H]DAMGO; membranes from CHO cells expressing rat MOR; mean ± SEM, at least three experiments
T2 construct: expressed in transfected cells

C57BL/6J mice [7] = experiment: Conditioned place preference / aversion assay; conditions: 10 mg/kg, i.p., two-day place conditioning
C57BL/6J mice [8] = experiment: Respiration and ambulation, CLAMS/Oxymax system; conditions: 10 mg/kg, i.p.; 60 min
C57BL/6J mice [9] = experiment: Opioid receptor involvement in antinociception (antagonist pretreatment, tail-withdrawal assay); assay type: in vivo, mouse; conditions: i.c.v. (1, 3, 4, 5 at 10 nmol, 2 at 100 nmol); pretreatment with β-FNA, nor-BNI or naltrindole
KOR = biological target: T3, KOR (Mus musculus, UniProt P33534); experiment: Antagonist activity against KOR-selective agonist U50,488 (tail-withdrawal assay); assay type: in vivo; conditions: stereoisomer 30 nmol i.c.v. pretreatment; U50,488 10 mg/kg i.p.
T3 construct: from tissue; host or cells: whole animal, C57BL/6J mice

C57BL/6J mice [10] = experiment: 55 °C warm-water tail-withdrawal assay (antinociception); assay type: in vivo, mouse; conditions: for duration of significant antinociception: i.c.v. administration; for ED50 (and 95% C.I.) i.c.v. / ED50 (and 95% C.I.) p.o.: C57BL/6J mice, antinociception at peak response; for antinociceptive efficacy / ED50 (and 95% C.I.) p.o.: p.o.
Protocol: For intracerebroventricular (i.c.v.) administration the macrocyclic tetrapeptides were dissolved in dimethyl sulfoxide (DMSO), followed by addition of sterile saline (0.9%) so that the final vehicle was 50% DMSO and 50% saline, and the i.c.v. injections performed as described previously. This concentration of DMSO was not observed to have antinociceptive or behavioral effects in previous use. For per os (p.o.) administration the macrocyclic tetrapeptides were administered in 10% Solutol in 0.9% saline. All solutions for animal administration were prepared fresh daily.
The 55 °C warm-water tail-withdrawal assay was performed in mice as previously described, with the latency of the mouse to withdraw its tail from the water taken as the endpoint (a cut-off time of 15 sec was used in this assay). Antinociception was calculated according to the following formula: % antinociception = 100 × (test latency − control latency)/(15 − control latency). Tail-withdrawal data points are the means of 8–16 mice, unless otherwise indicated, with SEM shown by error bars.
All dose-response lines were analyzed by regression, and ED50 (effective dose producing 50% antinociception) values and 95% confidence intervals (C.I.) determined using individual data points from graded dose-response curves with Prism 8.0 software (GraphPad, La Jolla, CA, USA). Percent antinociception was used to determine within group effects and to allow comparison to baseline latency in tail-withdrawal experiments. The statistical significance of differences between ED50 values was determined by evaluation of the ED50 value shift via nonlinear regression modeling with Prism software. Significant differences in behavioral data were analyzed by ANOVA (one-way or two-way with repeated measures (RM), as appropriate). Significant results were further analyzed with Sidak’s, Tukey’s, or Dunnett’s multiple comparison post hoc tests, as appropriate. Data for conditioned place preference experiments were analyzed by two-way RM ANOVA, with analyses examining the main effect of conditioned place preference phase (e.g., pre- or post-conditioning) and the interaction of drug pretreatment. Significant effects were further analyzed using Sidak’s HSD post hoc testing. All data are presented as mean ± SEM, with significance set at p < 0.05.

C57BL/6J mice [11] = conditions: mouse, in vivo
[12] = Metabolic stability in mouse liver microsomes; assay type: in vitro ADME; conditions: pH 7.4, 5 µM peptide, 0.25 mg/mL protein, with NADPH, 37 °C, read-out: t1/2 in mouse liver microsomes
Protocol: The macrocyclic tetrapeptide (5 µM) in 1% acetonitrile was incubated with mouse liver microsomes (0.25 mg/mL protein, Xenotech, Lenexa, KS, USA) at 37 °C in the presence or absence of co-factor NADPH RapidStart System (1 mM, Xenotech) or NADPH solution (Sigma, St. Louis, MO, USA) in potassium phosphate buffer (50 mM, pH 7.4). Aliquots (100 µL) taken at 0, 5, 15, 30, 60 and 120 min were quenched with ice-cold acetonitrile (1 vol) containing internal standard ([D-NMeAla^2]CJ-15,208 [26], 5 µM) to precipitate the proteins. The lack of endogenous interference with the analysis of the stereoisomer or internal standard was confirmed by analyzing samples lacking the macrocyclic tetrapeptide.
Following centrifugation at 10,000× g rpm for 10 min, the supernatant (50 µL) was diluted with water (75 µL), stored overnight at −20 °C and analyzed by LC-MS/MS using methodology similar to that described for [D-Trp]CJ-15,208 [32]. Liquid chromatography was performed on a Hypersil BDS C8 column (50 mm × 2.1 mm, 3 µm) with a flow rate of 0.2 mL/min and an injection volume of 20 µL using an Acquity UPLC system (Waters, Milford, MA, USA). The peptides were separated using a gradient of aqueous acetonitrile containing 0.08% formic acid of 20% B (0–2 min), 20–50% B (2–3 min), 50–80% B (3–6 min), 80% B (6–7 min), 80–20% B (7–8 min) and 20% B (8–10 min).
ESI-MS/MS was performed on a Waters Quatro triple quadrupole instrument operating in the positive ion multiple reaction monitoring mode. Data acquisition was carried out with Mass Lynx 4.1 software with the following settings: capillary voltage, 2500 V; cone voltage, 30 V; source temperature, 100 °C; desolvation temperature, 250 °C; cone gas flow, 279 L/h; desolvation gas flow, 1157 L/h; LM 1 resolution, 14; HM 1 resolution, 14; ion energy 1, 1.0; MS/MS mode entrance, -1; MS/MS collision energy, 35 eV; MS/MS mode exit, 2; LM 2 resolution, 13.0; HM 2 resolution, 13.0; ion energy 2, 1.5; multiplier, 650; collision cell pressure, 1.63 × 10^−3 mbar; collision gas, argon. The transition m/z 578.2 ([M + H]^+) → 217.2 was monitored to determine the peak area counts of the stereoisomers, and m/z 566.2 ([M + H]^+) → 232.9 was monitored to determine the peak area counts of the internal standard (collision energy 22 eV) with the following settings: dwell time, 0.3 s; delay, 0.05 s.

C57BL/6J mice [13] = conditions: mouse, in vivo; remark: listed apart in the source
DOR = biological target: T4, DOR (Mus musculus, UniProt P32300); experiment: Antagonist activity against DOR-selective agonist SNC-80 (tail-withdrawal assay); assay type: in vivo; conditions: stereoisomer 100 nmol i.c.v. pretreatment; SNC-80 100 nmol i.c.v.
T4 construct: from tissue; host or cells: whole animal, C57BL/6J mice

C57BL/6J mice [14] = conditions: mouse, in vivo; remark: listed apart in the source

T2 sequence (P33535 whole entry): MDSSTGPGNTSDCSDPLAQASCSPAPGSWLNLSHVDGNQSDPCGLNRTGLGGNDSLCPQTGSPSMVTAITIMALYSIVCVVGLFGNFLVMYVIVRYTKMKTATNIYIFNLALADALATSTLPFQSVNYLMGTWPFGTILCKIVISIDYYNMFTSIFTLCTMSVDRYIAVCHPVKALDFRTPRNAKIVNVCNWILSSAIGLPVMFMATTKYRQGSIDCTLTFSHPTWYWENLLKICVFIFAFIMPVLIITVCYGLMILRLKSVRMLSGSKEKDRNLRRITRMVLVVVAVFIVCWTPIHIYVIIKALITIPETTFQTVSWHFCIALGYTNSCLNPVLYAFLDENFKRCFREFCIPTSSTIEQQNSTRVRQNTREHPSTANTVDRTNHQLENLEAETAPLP
T1 sequence (P34975 whole entry): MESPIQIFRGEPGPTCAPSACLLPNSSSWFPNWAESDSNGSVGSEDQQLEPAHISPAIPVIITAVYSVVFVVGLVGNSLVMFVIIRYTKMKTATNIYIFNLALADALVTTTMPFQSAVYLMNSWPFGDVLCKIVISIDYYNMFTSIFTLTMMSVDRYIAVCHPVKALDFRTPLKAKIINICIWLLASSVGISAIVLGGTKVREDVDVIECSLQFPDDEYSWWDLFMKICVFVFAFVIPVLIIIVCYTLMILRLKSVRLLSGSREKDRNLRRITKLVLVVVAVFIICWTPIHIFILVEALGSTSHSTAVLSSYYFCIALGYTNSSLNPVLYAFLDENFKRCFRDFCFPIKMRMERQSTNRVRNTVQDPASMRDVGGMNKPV
T3 sequence (P33534 whole entry): as the sequence (P34975 whole entry) above, with E11D, A17S, P51S, V308A counted along it
T4 sequence (P32300 whole entry): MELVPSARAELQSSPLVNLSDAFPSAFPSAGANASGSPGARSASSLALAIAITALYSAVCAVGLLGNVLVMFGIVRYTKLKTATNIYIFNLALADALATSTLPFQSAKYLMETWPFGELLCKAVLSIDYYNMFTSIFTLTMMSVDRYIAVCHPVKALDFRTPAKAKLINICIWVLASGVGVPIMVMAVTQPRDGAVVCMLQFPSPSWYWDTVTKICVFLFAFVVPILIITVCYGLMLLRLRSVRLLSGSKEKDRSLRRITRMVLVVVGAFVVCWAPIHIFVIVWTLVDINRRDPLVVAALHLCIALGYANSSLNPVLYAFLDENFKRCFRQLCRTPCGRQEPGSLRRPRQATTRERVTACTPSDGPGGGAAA

For `O=C1N[C@@H](Cc2ccccc2)C(=O)N2CCC[C@@H]2C(=O)N[C@@H](Cc2ccccc2)C(=O)N[C@H]1Cc1c[nH]c2ccccc12` [CJ-15,208, cyclo[Phe-D-Pro-Phe-Trp]], the “half-life in mouse liver microsomes” value [1] is listed as 49 min, the “Selectivity Ki (MOR) Ki (KOR)” value (rat KOR [2]) is listed as 16.5 and the “ED50 (and 95% C.I.) i.c.v.” value (C57BL/6J mice [3]; i.c.v.) is listed as 1.74 (0.62–4.82) nmol. For the same compound, the “ED50 (and 95% C.I.) p.o.” value (C57BL/6J mice [3]; p.o.) was 3.49 (1.98–5.73) mg/kg, the “Fold-Shift, Naïve ED50 vs. Second ED50” value (C57BL/6J mice [4]) was 2.87 fold and the “ED50 (95% C.I.) Pretreated Mice” value (C57BL/6J mice [4]) was 5.23 (4.23–6.48) nmol. The “Naïve ED50 (95% C.I.)” value (C57BL/6J mice [4]) was 1.82 (1.22–2.74) nmol, the “affinity for DOR” value (mouse DOR) was “negligible affinity for DOR” and the “Receptors Involved (in antinociception)” value (C57BL/6J mice [5]) was “KOR, MOR”. The Ki (rat KOR [6]) was 27.4 ± 4.6 nM and the Ki (rat MOR) was 451 ± 114 nM.
With `CN1CC[C@]23c4c5ccc(O)c4O[C@H]2[C@@H](O)C=C[C@H]3[C@H]1C5` [Morphine, morphine, reference compound] the “Fold-Shift, Naïve ED50 vs. Second ED50” value (C57BL/6J mice [4]) was 7.63 fold, the “acute antinociceptive tolerance” value (C57BL/6J mice [4]) was “demonstrated acute antinociceptive tolerance” and the “Naïve ED50 (95% C.I.)” value (C57BL/6J mice [4]) was 2.91 (2.48–3.41) nmol. The “conditioned place preference or aversion” value (C57BL/6J mice [7]) was “significant place-preference for the morphine-paired chamber”, the “effect on ambulation vs vehicle” value (C57BL/6J mice [8]) was “robust, significant increases in ambulation” and the “effect on respiration rate vs vehicle” value (C57BL/6J mice [8]) was “significant, time-dependent respiratory depression”.
In the case of `O=C1N[C@H](Cc2ccccc2)C(=O)N2CCC[C@@H]2C(=O)N[C@@H](Cc2ccccc2)C(=O)N[C@H]1Cc1c[nH]c2ccccc12` (single isomer, unassigned) [Stereoisomer 1, cyclo[D-Phe-D-Pro-Phe-Trp]], the “Receptors Involved (in antinociception)” value (C57BL/6J mice [9]) is reported as “all three opioid receptors contributed to the antinociception; also recorded: KOR, MOR, DOR”, the “Fold-Shift, Naïve ED50 vs. Second ED50” value (C57BL/6J mice [4]) is reported as 31.2 fold and the “acute antinociceptive tolerance” value (C57BL/6J mice [4]) is reported as “greater acute antinociceptive tolerance than CJ-15,208”. The “Naïve ED50 (95% C.I.)” value (C57BL/6J mice [4]) was 0.65 (0.31–1.31) nmol, the “antagonism of U50,488 antinociception (KOR antagonist activity)” value (KOR) was “significant antagonism of U50,488” and the Ki (rat KOR [6]) was 5120 ± 690 nM. For the same compound, the “time of peak antinociception” value (C57BL/6J mice [10]; after i.c.v. administration) was 20 min, the “duration of significant antinociception” value (C57BL/6J mice [10]) was “intermediate duration” and the “ED50 (and 95% C.I.) i.c.v.” value (C57BL/6J mice [10]) was 0.75 (0.36–1.44) nmol. For the same compound, the “antinociceptive efficacy” value (C57BL/6J mice [10]) was “full antinociception”, the “time of peak antinociception” value (C57BL/6J mice [10]; p.o. administration) was 20 to 30 min and the “ED50 (and 95% C.I.) p.o.” value (C57BL/6J mice [10]) was 7.62 (5.12–12.2) mg/kg. For the same compound, the “effect on coordinated locomotor performance (rotarod) vs vehicle” value (C57BL/6J mice [11]) was “limited impairment of performance”, the half-life at 5 µM [12] was 54 min and the Ki (rat MOR) was greater than 10000 nM.
For `O=C1N[C@H](Cc2ccccc2)C(=O)N[C@H](Cc2c[nH]c3ccccc23)C(=O)N[C@@H](Cc2ccccc2)C(=O)N2CCC[C@H]12` (single isomer, unassigned) [Stereoisomer 5, cyclo[Phe-D-Pro-D-Phe-D-Trp]], the “Selectivity Ki (MOR) Ki (KOR)” value (rat KOR [2]) was 16, the “Receptors Involved (in antinociception)” value (C57BL/6J mice [9]) was “all three opioid receptors contributed to the antinociception; also recorded: KOR, MOR, DOR” and the “Fold-Shift, Naïve ED50 vs. Second ED50” value (C57BL/6J mice [4]) was 1.09 fold. The “ED50 (95% C.I.) Pretreated Mice” value (C57BL/6J mice [4]) was 0.49 (0.09–1.36) nmol, the “acute antinociceptive tolerance” value (C57BL/6J mice [4]) was “Neither stereoisomer 4 or 5 demonstrated any significant changes in the ED50 values” and the “Naïve ED50 (95% C.I.)” value (C57BL/6J mice [4]) was 0.45 (0.28–0.70) nmol. For the same compound, the “effect on respiration rate vs vehicle” value (C57BL/6J mice [13]) was “significant decreases in respiration rates”, the Ki (rat KOR [6]) was 353 ± 19 nM and the “antagonism of SNC-80 antinociception (DOR antagonist activity)” value (DOR) was “significantly antagonized SNC-80”. The “time of peak antinociception” value (C57BL/6J mice [10]; after i.c.v. administration) was 30 min, the “duration of significant antinociception” value (C57BL/6J mice [10]) was 90 min and the “ED50 (and 95% C.I.) i.c.v.” value (C57BL/6J mice [10]) was 0.56 (0.38–0.91) nmol. For the same compound, the “antinociceptive efficacy” value (C57BL/6J mice [10]) was “full antinociception”, the “time of peak antinociception” value (C57BL/6J mice [10]; p.o. administration) was 20 to 30 min and the “ED50 (and 95% C.I.) p.o.” value (C57BL/6J mice [10]) was 4.72 (3.70–6.39) mg/kg. The “effect on coordinated locomotor performance (rotarod) vs vehicle” value (C57BL/6J mice [11]) was “lacked any significant effect”, the “conditioned place preference or aversion” value (C57BL/6J mice [14]) was “no significant preference or aversion” and the half-life at 5 µM [12] was 15 min. The Ki (rat MOR) was 5800 ± 1450 nM.
